Reference: patent publication US20210114983A1, “Cathepsin C inhibitors” (National Institute of Biological Sciences, Beijing, priority 2018, published 2021)

Target: rhCatC (Cathepsin C) (Homo sapiens, UniProt P53634)
Assay: In Vitro CatC Enzyme Assay
Type: biochemical
Details: read-out: Cat C Enzy (Cathepsin C inhibitory activity, IC50)
Method: In Vitro CatC Enzyme Assay
The CatC enzyme assay was performed in black 384-well plate. Firstly, rhCatC (440 nM) was activated by rhCatL (300 nM) in activation buffer (25 mM MES, 5 mM DTT, pH 6.0) at room temperature for 2 h and then activated rhCatC was diluted to 4.4 nM in assay buffer (25 mM MES, 50 mM NaCl, 5 mM DTT, 0.01% (v/v) Triton X100, pH 6.0), 14 μL activated rhCatC and 1 μL compound in 10% DMSO or 10% DMSO were incubated at room temperature for 3 h, and 5 μL substrate (Gly-Phe-AFC) was added to final concentration of 100 μM. After 60 min reaction, the product of the reaction was measured in the Enspire plate reader using Ex λ400 nm and Em λ505 nm for AFC. A standard irreversible CatC inhibitor 10 by AstraZeneca (J. Med. Chem. 2014, 57, 2357-2367) was used as an inhibitor control in the assay.

Chain of rhCatC (Cathepsin C) (P53634 25-134 limits assumed): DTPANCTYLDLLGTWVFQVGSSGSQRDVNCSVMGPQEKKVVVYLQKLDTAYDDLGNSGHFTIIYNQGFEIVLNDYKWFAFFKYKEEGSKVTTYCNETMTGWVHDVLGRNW
Chain of rhCatC (Cathepsin C) (P53634 231-394 limits assumed): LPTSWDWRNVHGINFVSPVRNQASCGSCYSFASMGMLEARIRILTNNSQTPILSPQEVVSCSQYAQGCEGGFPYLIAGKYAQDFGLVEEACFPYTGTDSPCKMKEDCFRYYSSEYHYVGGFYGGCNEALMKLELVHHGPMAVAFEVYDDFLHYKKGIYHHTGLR
Chain of rhCatC (Cathepsin C) (P53634 395-463 limits assumed): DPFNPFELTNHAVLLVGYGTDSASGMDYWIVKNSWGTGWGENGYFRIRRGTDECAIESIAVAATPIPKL

| IC50 [µM] | SMILES |
| --- | --- |
| 0.003 to 0.3 | C=CC(=O)Nc1cc(Oc2cccc(Nc3ccc(N4CCN(C)CC4)cc3OC)n2)ccc1C(F)(F)F [Compound 51, N-(5-((6-((2-methoxy-4-(4-methylpiperazin-1-yl)phenyl)amino)pyridin-2-yl)oxy)-2-(trifluoromethyl)phenyl)acrylamide] |
| 0.3 to 30 | CC#CC(=O)Nc1cc(Oc2nc(Nc3ccc(N4CCN(C)CC4)cc3OC)ccc2N2CCCCC2)ccc1C [Compound 47, N-(5-((6-((2-methoxy-4-(4-methylpiperazin-1-yl)phenyl)amino)-3-(piperidin-1-yl)pyridin-2-yl)oxy)-2-methylphenyl)but-2-ynamide] |
| 0.3 to 30 | C#Cc1ccc(Nc2ccc(N3CCN(C)CC3)cc2OC)nc1Oc1cccc(NC(=O)C=C)c1 [Compound 23, N-(3-((3-ethynyl-6-((2-methoxy-4-(4-methylpiperazin-1-yl)phenyl)amino)pyridin-2-yl)oxy)phenyl)acrylamide] |
| 0.3 to 30 | C#CC(=O)Nc1cccc(Oc2nc(Nc3ccc(N4CCN(C)CC4)cc3OC)ccc2Cl)c1 [Compound 13, N-(3-((3-chloro-6-((2-methoxy-4-(4-methylpiperazin-1-yl)phenyl)amino)pyridin-2-yl)oxy)phenyl)propiolamide] |
| 0.003 to 0.3 | C#CCN1CCN(c2ccc(Nc3ccc(N4CCCCC4)c(Oc4ccc(C)c(NC(=O)C=C)c4)n3)c(OC)c2)CC1 [Compound 56] |
| 0.003 to 0.3 | C=CC(=O)Nc1cc(Oc2cccc(Nc3ccc(N4CCN(C)CC4)cc3OC)n2)ccc1C [Compound 43, N-(5-((6-((2-methoxy-4-(4-methylpiperazin-1-yl)phenyl)amino)pyridin-2-yl)oxy)-2-methylphenyl)acrylamide] |
| 0.3 to 30 | C=CC(=O)Nc1cccc(Oc2nc(Nc3cccc(CN)c3)ccc2Cl)c1 [Compound 6, N-(3-((6-((3-(aminomethyl)phenyl)amino)-3-chloropyridin-2-yl)oxy)phenyl)acrylamide] |
| 0.3 to 30 | C=CC(=O)Nc1cccc(N(C)c2cccc(Nc3ccc(N4CCN(C)CC4)cc3OC)n2)c1 [Compound 24, N-(3-((6-((2-methoxy-4-(4-methylpiperazin-1-yl)phenyl)amino)pyridin-2-yl)(methyl)amino)phenyl)acrylamide] |
| 0.003 to 0.3 | C=CC(=O)Nc1cc(Oc2nc(Nc3ccc(N4CCN(C)CC4)nc3OC)ccc2N2CCCCC2)ccc1C [Compound 35, N-(5-((6-((2-methoxy-6-(4-methylpiperazin-1-yl)pyridin-3-yl)amino)-3-(piperidin-1-yl)pyridin-2-yl)oxy)-2-methylphenyl)acrylamide] |
| 0.3 to 30 | C=CC(=O)Nc1cccc(Oc2nc(Nc3ccc(N4CCN(CC5CC5)CC4)cc3)ccc2Cl)c1 [Compound 14, N-(3-((3-chloro-6-((4-(4-(cyclopropylmethyl)piperazin-1-yl)phenyl)amino)pyridin-2-yl)oxy)phenyl)acrylamide] |
| 0.003 to 0.3 | C=CC(=O)Nc1cc(Oc2nc(Nc3ccc(N4CCNCC4)cc3OC)ccc2N2CCCCC2)ccc1C [Compound 54] |
| 0.003 to 0.3 | C=CC(=O)Nc1cccc(Oc2nc(Nc3ccc(N4CCN(C)CC4)cc3OC)ccc2N2CCCCCC2)c1 [Compound 53, N-(3-((3-(azepan-1-yl)-6-((2-methoxy-4-(4-methylpiperazin-1-yl)phenyl)amino)pyridin-2-yl)oxy)phenyl)acrylamide] |
| 0.003 to 0.3 | C=CC(=O)Nc1cc(Oc2nc(Nc3ccc(N4CCN(C)CC4)cc3OC)ccc2N2CCCC(O)C2)ccc1C (stereo not drawn) [Compound 32, N-(5-((3-(3-hydroxypiperidin-1-yl)-6-((2-methoxy-4-(4-methylpiperazin-1-yl)phenyl)amino)pyridin-2-yl)oxy)-2-methylphenyl)acrylamide] |
| 0.003 to 0.3 | C=CC(=O)Nc1cccc(Oc2nc(Nc3ccc(N4CCN(C)CC4)cc3OC)ccc2N2CCCC2)c1 [Compound 20, N-(3-((6-((2-methoxy-4-(4-methylpiperazin-1-yl)phenyl)amino)-3-(pyrrolidin-1-yl)pyridin-2-yl)oxy)phenyl)acrylamide] |
| 0.3 to 30 | COc1cc(N2CCN(C)CC2)ccc1Nc1ccc(N2CCCCC2)c(Oc2ccc(C)c(NC(=O)C=C(C)C)c2)n1 [Compound 46, N-(5-((6-((2-methoxy-4-(4-methylpiperazin-1-yl)phenyl)amino)-3-(piperidin-1-yl)pyridin-2-yl)oxy)-2-methylphenyl)-3-methylbut-2-enamide] |
